Measurements as given in US4966900A, “Cephalosporin β-lactam compound and medicinal composition” (priority 1986, dated 1990).
Values after ≈ are worked out from the molar mass of the structure shown. Structures can show the parent of a compound that is named as a salt.

Tests used:
Test in all cases: MIC
[1] = system: E. cloacae 1Y247; assay type: cell-based; conditions: Enterobacter cloacae, Table 6, read-out: MIC
Method: (§1) The minimum inhibition concentrations (MIC) of the compounds obtained in the respective examples described above were measured according to the standard method of Japanese Chemotherapy Association.

[2] = system: S. aureus IAA498; assay type: cell-based; conditions: Staphylococcus aureus, Table 5
Method: as §1

[3] = system: S. aureus Smith; conditions: Staphylococcus aureus, Table 5
[4] = system: E. coli ML4707; conditions: Escherichia coli, ML4707, E. coli ML4707; Table 5
[5] = system: E. coli GN5482; conditions: Escherichia coli, GN5482, E. coli GN5482; Table 5
[6] = system: K. pneumoniae 4at521; conditions: Klebsiella pneumoniae, 4AT521
[7] = system: E. colacae GN7471; conditions: Table 5
[8] = system: E. cloacae 908RN; conditions: Enterobacter cloacae
[9] = system: C. freundii GN7391; conditions: Citrobacter freundii, GN7391, C. freundii GN7391
[10] = system: S. marcescens GN10857; conditions: Serratia marcescens, GN10857, S. marcescens GN10857; Table 5
[11] = system: P. vulgaris GN7919; conditions: Proteus vulgaris, GN7919
[12] = system: P. aeruginosa GN10362; conditions: Pseudomonas aeruginosa, GN10362
[13] = system: P. aeruginosa 4au542; conditions: Pseudomonas aeruginosa, 4AU542, P. aeruginosa 4au542; Table 5
[14] = system: P. aeruginosa 5D58-1; conditions: Pseudomonas aeruginosa, 5D581, P. aeruginosa 5D58-1; Table 5
[15] = system: P. cepacia OF189; conditions: Burkholderia cepacia, OF189, P. cepacia OF189; Table 5
[16] = system: P. maltophilia OF247; conditions: Stenotrophomonas maltophilia, Table 5
[17] = system: E. cloacae 5D52-2; conditions: Enterobacter cloacae, 5D522
[18] = system: E. cloacae 5D63-2; conditions: Enterobacter cloacae, 5D632
[19] = system: E. cloacae 1V25; conditions: Enterobacter cloacae
[20] = system: C. freundii 5D60-1; conditions: Citrobacter freundii, 5D601
[21] = system: C. freundii 1R523; conditions: Citrobacter freundii, 1R523
[22] = system: C. freundii 1R524; conditions: Citrobacter freundii, 1R524
[23] = system: C. freundii 1R526; conditions: Citrobacter freundii, 1R526
[24] = system: C. freundii 1R527; conditions: Citrobacter freundii, 1R527
[25] = system: C. freundii 1U589; conditions: Citrobacter freundii, 1U589
[26] = system: C. freundii 1U692; conditions: Citrobacter freundii, 1U692

Structure (SMILES) | MIC [1] [µg/mL] | MIC [2] [µg/mL] | MIC [3] [µg/mL] | MIC [4] [µg/mL] | MIC [5] [µg/mL] | MIC [6] [µg/mL] | MIC [7] [µg/mL] | MIC ([8]; E. cloacae 908RN, Table 6) [µg/mL] | MIC ([8]; E. colacae 908RN, Table 5) [µg/mL] | MIC ([9]; Table 5) [µg/mL] | MIC ([9]; Table 6) [µg/mL] | MIC [10] [µg/mL] | MIC [11] [µg/mL] | MIC [12] [µg/mL] | MIC [13] [µg/mL] | MIC [14] [µg/mL] | MIC [15] [µg/mL] | MIC [16] [µg/mL] | MIC [17] [µg/mL] | MIC [18] [µg/mL] | further results
CC(C)(ON=C(C(=O)NC1C(=O)N2C(C(=O)O)=C(CSc3c4c(nc5ncnn35)CCC4)CSC12)c1csc(N)n1)C(=O)NNC(=O)c1ccc(O)c(O)c1 (centres unmarked) [Example 36] | 12.5 (≈ 15.4 µM) | 12.5 (≈ 15.4 µM) | 6.25 (≈ 7.72 µM) | 0.012 (≈ 0.0148 µM) | 0.012 (≈ 0.0148 µM) | 0.012 (≈ 0.0148 µM) | 3.13 (≈ 3.86 µM) | 12.5 (≈ 15.4 µM) | 3.13 (≈ 3.86 µM) | 3.13 (≈ 3.86 µM) | 6.25 (≈ 7.72 µM) | 0.39 (≈ 0.482 µM) | 0.78 (≈ 0.963 µM) | 0.2 (≈ 0.247 µM) | 0.39 (≈ 0.482 µM) | 0.78 (≈ 0.963 µM) | 0.012 (≈ 0.0148 µM) | 0.2 (≈ 0.247 µM) | 0.2 (≈ 0.247 µM) | 0.39 (≈ 0.482 µM) | MIC [19]: 12.5 µg/mL (≈ 15.4 µM); MIC [20]: 1.56 µg/mL (≈ 1.93 µM); MIC [21]: 0.2 µg/mL (≈ 0.247 µM); MIC [22]: 0.2 µg/mL (≈ 0.247 µM); MIC [23]: 0.2 µg/mL (≈ 0.247 µM); MIC [24]: 0.2 µg/mL (≈ 0.247 µM); MIC [25]: 0.39 µg/mL (≈ 0.482 µM); MIC [26]: 0.39 µg/mL (≈ 0.482 µM)
Cc1nc2ncnn2c(SCC2=C(C(=O)O)N3C(=O)C(NC(=O)C(=NOC(C)(C)C(=O)NNC(=O)c4ccc(O)c(O)c4)c4csc(N)n4)C3SC2)c1C (centres unmarked) [Example 39] | 1.56 (≈ 1.96 µM) | 12.5 (≈ 15.7 µM) | 12.5 (≈ 15.7 µM) | < 0.006 | < 0.006 | 0.012 (≈ 0.015 µM) | 1.56 (≈ 1.96 µM) | 3.13 (≈ 3.92 µM) | 1.56 (≈ 1.96 µM) | 3.13 (≈ 3.92 µM) | 3.13 (≈ 3.92 µM) | 0.2 (≈ 0.251 µM) | 0.78 (≈ 0.978 µM) | 0.2 (≈ 0.251 µM) | 0.39 (≈ 0.489 µM) | 0.78 (≈ 0.978 µM) | < 0.006 | 0.2 (≈ 0.251 µM) | 0.39 (≈ 0.489 µM) | 0.2 (≈ 0.251 µM) | MIC [19]: 12.5 µg/mL (≈ 15.7 µM); MIC [20]: 0.39 µg/mL (≈ 0.489 µM); MIC [21]: 0.1 µg/mL (≈ 0.125 µM); MIC [22]: 0.1 µg/mL (≈ 0.125 µM); MIC [23]: 0.1 µg/mL (≈ 0.125 µM); MIC [24]: 0.1 µg/mL (≈ 0.125 µM); MIC [25]: 0.39 µg/mL (≈ 0.489 µM); MIC [26]: 0.39 µg/mL (≈ 0.489 µM)
Cc1cc(SCC2=C(C(=O)O)N3C(=O)C(NC(=O)C(=NOC(C)(C)C(=O)NNC(=O)c4ccc(O)c(O)c4)c4csc(N)n4)C3SC2)n2nnnc2n1 (centres unmarked) [Example 29, 7-{2-[2-amino-1,3-thiazol-4-yl]-2-[1-(3-(3,4-dihydroxybenzoyl)carbazoyl)-1-methylethoxyimino]acetamide}-3-[(5-methyltetrazolo[1,5-a]pyrimidin-7-yl)thiomethyl]-3-cephem-4-carboxylic acid.hydrochloride] | 0.78 | 3.13 | 1.56 | < 0.006 | 0.025 | 0.012 | 1.56 | 3.13 | 6.25 | 6.25 | 0.012 | 0.39 | 6.25 | 0.39 | 0.78 | 0.39 | < 0.006 | 0.2 | 0.78 | 0.78 | MIC [19]: 3.13 µg/mL; MIC [20]: 0.39 µg/mL; MIC [21]: 0.2 µg/mL; MIC [22]: 0.78 µg/mL; MIC [23]: 0.2 µg/mL; MIC [24]: 0.78 µg/mL; MIC [25]: 0.78 µg/mL; MIC [26]: 12.5 µg/mL
Cc1nc2nc(C(=O)O)cc(SCC3=C(C(=O)O)N4C(=O)C(NC(=O)C(=NOC(C)(C)C(=O)NNC(=O)c5ccc(O)c(O)c5)c5csc(N)n5)C4SC3)n2n1 (centres unmarked) [Example 37] | 3.13 (≈ 3.78 µM) | 25 (≈ 30.2 µM) | 25 (≈ 30.2 µM) | 0.012 (≈ 0.0145 µM) | 0.012 (≈ 0.0145 µM) | < 0.006 | 0.78 (≈ 0.942 µM) | 0.78 (≈ 0.942 µM) | 0.78 (≈ 0.942 µM) | 1.56 (≈ 1.88 µM) | 3.13 (≈ 3.78 µM) | 0.2 (≈ 0.242 µM) | 0.78 (≈ 0.942 µM) | 0.05 (≈ 0.0604 µM) | 0.2 (≈ 0.242 µM) | 0.78 (≈ 0.942 µM) | < 0.006 | 0.39 (≈ 0.471 µM) | 0.1 (≈ 0.121 µM) | 0.2 (≈ 0.242 µM) | MIC [19]: 6.25 µg/mL (≈ 7.55 µM); MIC [20]: 0.39 µg/mL (≈ 0.471 µM); MIC [21]: 0.1 µg/mL (≈ 0.121 µM); MIC [22]: 0.1 µg/mL (≈ 0.121 µM); MIC [23]: 0.1 µg/mL (≈ 0.121 µM); MIC [24]: 0.1 µg/mL (≈ 0.121 µM); MIC [25]: 0.2 µg/mL (≈ 0.242 µM); MIC [26]: 0.2 µg/mL (≈ 0.242 µM)
CC(C)(ON=C(C(=O)NC1C(=O)N2C(C(=O)O)=C(CSc3c4c(nc5nc(C(=O)O)nn35)CCC4)CSC12)c1csc(N)n1)C(=O)NNC(=O)c1ccc(O)c(O)c1 (centres unmarked) [Example 33, 7-{2-[2-amino-1,3-thiazol-4-yl]-2-[1-(3-(3,4-dihydroxybenzoyl)carbazoyl)-1-methylethoxyimino]acetamide}-3-[(2-carboxy-6,7-dihydro-5H-cyclopenta[f]-s-triazolo[1,5-a]pyrimidin-8-yl)thiomethyl]-3-cephem-4-carboxylic acid.hydrochloride] | 1.56 | 25 | 25 | < 0.006 | < 0.006 | < 0.006 | 0.39 | 0.2 | 0.2 | 0.39 | 0.78 | 0.05 | 0.2 | 0.05 | 0.2 | 0.2 | < 0.006 | 0.1 | 0.1 | 0.1 | MIC [19]: 1.56 µg/mL; MIC [20]: 0.2 µg/mL; MIC [21]: 0.05 µg/mL; MIC [22]: 0.025 µg/mL; MIC [23]: 0.025 µg/mL; MIC [24]: 0.025 µg/mL; MIC [25]: 0.05 µg/mL; MIC [26]: 0.05 µg/mL
